Test results from patent publication US6693216B2, “Calcium double salts” (Nutrinova Nutrition Specialties & Food Ingredients GmbH, priority 2000, dated 2004).
Where two headings read alike, the source gives them in different places.

Experiments:
[1] = sealed
Excerpt: Salts prepared as in example 1 were dried, stored under the specified conditions without the addition of other substances and checked at regular intervals visually for discoloration: […]

Lactic acid bacteria = conditions: Part II, 1 g/l in apple juice pH 4.5, 25° C.
Clostridia = conditions: Part II, 1 g/l in apple juice pH 4.5, 25° C.
Bacilli = conditions: Part II, 1 g/l in apple juice pH 4.5, 25° C.
Thermophilic bacilli = conditions: Part II, 1 g/l in apple juice pH 4.5, 25° C.
Acetic acid bacteria = conditions: Part II, 1 g/l in apple juice pH 4.5, 25° C.
Yeasts = conditions: Part II, 1 g/l in apple juice pH 4.5, 25° C.
Molds I = conditions: Part II, 1 g/l in apple juice pH 4.5, 25° C.
Molds II = conditions: Part II, 1 g/l in apple juice pH 4.5, 25° C.
Gram-negative bacteria = conditions: Part II, 1 g/l in apple juice pH 4.5, 25° C.
Gram-positive bacteria = conditions: Part II, 1 g/l in apple juice pH 4.5, 25° C.
[2] = 1 day after inoculation (2.7 × 10^4)
[3] = 3 days after inoculation (2.7 × 10^4)
[4] = 7 days after inoculation (2.7 × 10^4)
[5] = 14 days after inoculation (2.7 × 10^4)

Compound: C/C=C/C=C/C(=O)[O-].O=C[O-].[Ca+2]
- Time after yellow-brown discoloration of a 1% strength aqueous solution ([1]; dark at 7° C.): 12 months/>12 months
- Time after yellow-brown discoloration of the powder ([1]; dark at 7° C.): >12 months />12 months
- Time after yellow-brown discoloration of a 1% strength aqueous solution ([1]; dark at 25° C.): 12 months/>12 months
- Time after yellow-brown discoloration of the powder ([1]; dark at 25° C.): >12 months />12 months
- Time after yellow-brown discoloration of a 1% strength aqueous solution ([1]; under sunlight at 7° C.): 12 months/>12 months
- Time after yellow-brown discoloration of the powder ([1]; under sunlight at 7° C.): 12 months/>12 months
- Time after yellow-brown discoloration of a 1% strength aqueous solution ([1]; under sunlight at 25° C.): 12 months/>12 months
- Time after yellow-brown discoloration of the powder ([1]; under sunlight at 25° C.): 12 months/>12 months
- Number of surviving microorganisms per g of contaminated sample, Lactic acid bacteria (Lactic acid bacteria; [2]): 3.9 × 10^3 CFU/g
- Number of surviving microorganisms per g of contaminated sample, Lactic acid bacteria (Lactic acid bacteria; [3]): 1.5 × 10^3 CFU/g
- Number of surviving microorganisms per g of contaminated sample, Lactic acid bacteria (Lactic acid bacteria; [4]): <10 CFU/g
- Number of surviving microorganisms per g of contaminated sample, Lactic acid bacteria (Lactic acid bacteria; [5]): <10 CFU/g
- Number of surviving microorganisms per g of contaminated sample, Clostridia (Clostridia; 1 day after inoculation (2.9 × 10^4)): 1.1 × 10^3 CFU/g
- Number of surviving microorganisms per g of contaminated sample, Clostridia (Clostridia; 3 days after inoculation (2.9 × 10^4)): <100 CFU/g
- Number of surviving microorganisms per g of contaminated sample, Clostridia (Clostridia; 7 days after inoculation (2.9 × 10^4)): 100 CFU/g
- Number of surviving microorganisms per g of contaminated sample, Clostridia (Clostridia; 14 days after inoculation (2.9 × 10^4)): <10 CFU/g
- Number of surviving microorganisms per g of contaminated sample, Bacilli (Bacilli; 1 day after inoculation (3.3 × 10^4)): 3.2 × 10^3 CFU/g
- Number of surviving microorganisms per g of contaminated sample, Bacilli (Bacilli; 3 days after inoculation (3.3 × 10^4)): 1.8 × 10^3 CFU/g
- Number of surviving microorganisms per g of contaminated sample, Bacilli (Bacilli; 7 days after inoculation (3.3 × 10^4)): 1.7 × 10^3 CFU/g
- Number of surviving microorganisms per g of contaminated sample, Bacilli (Bacilli; 14 days after inoculation (3.3 × 10^4)): 1.8 × 10^3 CFU/g
- Number of surviving microorganisms per g of contaminated sample, Thermophilic bacilli (Thermophilic bacilli; 1 day after inoculation (1.3 × 10^4)): 2.0 × 10^3 CFU/g
- Number of surviving microorganisms per g of contaminated sample, Thermophilic bacilli (Thermophilic bacilli; 3 days after inoculation (1.3 × 10^4)): 3.0 × 10^2 CFU/g
- Number of surviving microorganisms per g of contaminated sample, Thermophilic bacilli (Thermophilic bacilli; 7 days after inoculation (1.3 × 10^4)): <10 CFU/g
- Number of surviving microorganisms per g of contaminated sample, Thermophilic bacilli (Thermophilic bacilli; 14 days after inoculation (1.3 × 10^4)): <10 CFU/g
- Number of surviving microorganisms per g of contaminated sample, Acetic acid bacteria (Acetic acid bacteria; 1 day after inoculation (2.8 × 10^4)): 2.1 × 10^4 CFU/g
- Number of surviving microorganisms per g of contaminated sample, Acetic acid bacteria (Acetic acid bacteria; 3 days after inoculation (2.8 × 10^4)): 1.6 × 10^4 CFU/g
- Number of surviving microorganisms per g of contaminated sample, Acetic acid bacteria (Acetic acid bacteria; 7 days after inoculation (2.8 × 10^4)): 7.6 × 10^3 CFU/g
- Number of surviving microorganisms per g of contaminated sample, Acetic acid bacteria (Acetic acid bacteria; 14 days after inoculation (2.8 × 10^4)): 2.6 × 10^4 CFU/g
- Number of surviving microorganisms per g of contaminated sample, Yeasts (Yeasts; 1 day after inoculation (2.6 × 10^4)): 1.3 × 10^4 CFU/g
- Number of surviving microorganisms per g of contaminated sample, Yeasts (Yeasts; 3 days after inoculation (2.6 × 10^4)): 4.3 × 10^3 CFU/g
- Number of surviving microorganisms per g of contaminated sample, Yeasts (Yeasts; 7 days after inoculation (2.6 × 10^4)): <100 CFU/g
- Number of surviving microorganisms per g of contaminated sample, Yeasts (Yeasts; 14 days after inoculation (2.6 × 10^4)): <10 CFU/g
- Number of surviving microorganisms per g of contaminated sample, Molds I (Molds I; 1 day after inoculation (2.2 × 10^4)): 3.8 × 10^3 CFU/g
- Number of surviving microorganisms per g of contaminated sample, Molds I (Molds I; 3 days after inoculation (2.2 × 10^4)): 2.0 × 10^2 CFU/g
- Number of surviving microorganisms per g of contaminated sample, Molds I (Molds I; 7 days after inoculation (2.2 × 10^4)): 25 CFU/g
- Number of surviving microorganisms per g of contaminated sample, Molds I (Molds I; 14 days after inoculation (2.2 × 10^4)): 10 CFU/g
- Number of surviving microorganisms per g of contaminated sample, Molds II (Molds II; 1 day after inoculation (2.5 × 10^4)): 3.9 × 10^3 CFU/g
- Number of surviving microorganisms per g of contaminated sample, Molds II (Molds II; 3 days after inoculation (2.5 × 10^4)): <100 CFU/g
- Number of surviving microorganisms per g of contaminated sample, Molds II (Molds II; 7 days after inoculation (2.5 × 10^4)): <10 CFU/g
- Number of surviving microorganisms per g of contaminated sample, Molds II (Molds II; 14 days after inoculation (2.5 × 10^4)): <10 CFU/g
- Number of surviving microorganisms per g of contaminated sample, Gram-negative bacteria (Gram-negative bacteria; [2]): 1.7 × 10^4 CFU/g
- Number of surviving microorganisms per g of contaminated sample, Gram-negative bacteria (Gram-negative bacteria; [3]): 2.5 × 10^3 CFU/g
- Number of surviving microorganisms per g of contaminated sample, Gram-negative bacteria (Gram-negative bacteria; [4]): 2.0 × 10^3 CFU/g
- Number of surviving microorganisms per g of contaminated sample, Gram-negative bacteria (Gram-negative bacteria; [5]): <10 CFU/g
- Number of surviving microorganisms per g of contaminated sample, Gram-positive bacteria (Gram-positive bacteria; 1 day after inoculation (2.1 × 10^4)): 2.1 × 10^4 CFU/g
- Number of surviving microorganisms per g of contaminated sample, Gram-positive bacteria (Gram-positive bacteria; 3 days after inoculation (2.1 × 10^4)): 8.5 × 10^3 CFU/g
- Number of surviving microorganisms per g of contaminated sample, Gram-positive bacteria (Gram-positive bacteria; 7 days after inoculation (2.1 × 10^4)): 6.8 × 10^2 CFU/g
- Number of surviving microorganisms per g of contaminated sample, Gram-positive bacteria (Gram-positive bacteria; 14 days after inoculation (2.1 × 10^4)): <10 CFU/g
- Preservative action against the microorganisms used (all microorganisms used; 1 g/l in apple juice pH 4.5, up to 14 days): acts well and persistently against all microorganisms used, except for acetic acid bacteria and bacilli
- Preservative action compared with the single salts (all microorganisms used; same concentration, 1 g/l in apple juice pH 4.5): acts surprisingly better than calcium formate (in particular against lactic acid bacteria, yeasts and molds) or calcium sorbate (in particular against Gram-negative bacteria) used alone
